In ChEMBL document CHEMBL1201862, “PubChem BioAssay data set” (2004):
The source made the active and inactive calls.

Experiments:
[1] = Vero 76 cell cytotoxicity, dose response, cytotoxicity control, set 3 (AID 602439); type: functional; conditions: Venezuelan equine encephalitis virus
[2] = target: T1, Microphthalmia-associated transcription factor (Homo sapiens, UniProt O75030); experiment: TRPM1 promoter luciferase signal decrease, dose response, MITF inhibitor project, cell-based, SK-MEL-5, cherry-picked, set 3 (AID 493073); type: functional
T1 sequence (O75030 whole entry): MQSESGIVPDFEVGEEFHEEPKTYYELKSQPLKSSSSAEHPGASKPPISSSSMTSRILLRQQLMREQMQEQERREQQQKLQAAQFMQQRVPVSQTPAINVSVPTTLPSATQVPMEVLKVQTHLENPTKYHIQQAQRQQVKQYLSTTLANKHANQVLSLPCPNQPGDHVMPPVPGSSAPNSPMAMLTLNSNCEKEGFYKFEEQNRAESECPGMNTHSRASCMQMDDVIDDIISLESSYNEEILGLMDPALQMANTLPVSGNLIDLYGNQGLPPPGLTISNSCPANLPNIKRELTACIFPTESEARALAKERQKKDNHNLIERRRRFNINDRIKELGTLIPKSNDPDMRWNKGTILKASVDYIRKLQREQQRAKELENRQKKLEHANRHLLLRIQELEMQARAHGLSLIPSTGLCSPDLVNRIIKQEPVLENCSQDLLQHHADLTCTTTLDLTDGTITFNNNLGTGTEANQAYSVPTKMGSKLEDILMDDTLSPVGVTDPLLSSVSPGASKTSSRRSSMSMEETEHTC

[3] = Shn3 3'UTR reporter inhibitors, dose response, cell-based, Clone20 osteoblasts, firefly luciferase, cherry-picked (AID 624132); type: functional;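 further: firefly luciferase luminescence from reporter carrying the Shn3 3'UTR in osteoblasts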
[4] = HepG2 cell cytotoxicity, dose response, cytotoxicity control for Shn3 inhibitor project, CellTiter-Glo, cherry-picked (AID 624134); type: functional, cell-based
[5] = control 3'UTR Renilla luciferase suppression, dose response, counter-screen for Shn3 inhibitor project, cell-based, Clone20-Shn3RL, cherry-picked (AID 624133); type: functional
[6] = reduction of Shn3 3'UTR firefly luciferase signal, dose response, Schnurri-3 inhibitor project, cell-based, Clone20 osteoblasts, cherry-pick, set 2 (AID 720490); type: functional;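 further: actives lower the luminescence signal as inhibitors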
[7] = system: Streptococcus sp. 'group A'; experiment: growth inhibition of control SK(-) GAS strain, dose response, counter-screen for streptokinase expression inhibitor project, luminescence, kanamycin, BacTiterGlo, confirmation (AID 1900); type: functional, organism-based
Streptokinase A = target: T2, Streptokinase A (Streptococcus pyogenes serotype M1, UniProt P10520); experiment: S. pyogenes streptokinase expression inhibitors, potency, dose response, plasminogen activation absorbance, OD405 (AID 1914); type: functional, Streptococcus pyogenes M1 GAS;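 further: secreted streptokinase activity via plasminogen activation per viability signal from cell pellet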
T2 sequence (P10520 whole entry): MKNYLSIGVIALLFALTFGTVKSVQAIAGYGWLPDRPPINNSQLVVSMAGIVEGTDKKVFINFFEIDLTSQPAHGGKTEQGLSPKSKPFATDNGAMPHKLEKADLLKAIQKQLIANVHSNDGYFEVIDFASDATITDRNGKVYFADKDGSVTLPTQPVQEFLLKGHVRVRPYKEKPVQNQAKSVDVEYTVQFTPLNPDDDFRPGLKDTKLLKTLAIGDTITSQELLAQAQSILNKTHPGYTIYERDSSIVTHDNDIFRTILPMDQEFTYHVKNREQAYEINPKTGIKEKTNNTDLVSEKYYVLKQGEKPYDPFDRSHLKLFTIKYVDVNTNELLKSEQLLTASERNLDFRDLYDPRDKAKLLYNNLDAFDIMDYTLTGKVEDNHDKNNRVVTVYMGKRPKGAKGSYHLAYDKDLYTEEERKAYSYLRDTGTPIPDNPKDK

Streptococcus = experiment: Group A Streptococcus viability loss, dose response, counter-screen for streptokinase expression inhibitor project, luminescence, BacTiterGlo (AID 1915); type: functional, organism-based;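 further: potency for reduction of bacterial viability or growth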
INS1 = experiment: beta cell apoptosis inhibitors, cytokine rescue, dose response, luminescence, retest (AID 449756); type: functional, cell-based; conditions: Rattus norvegicus;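 further: cell death triggered by IL-1 beta plus TNF-alpha plus IFN-gamma mixture; protective hits raise ATP signal compared with cytokine alone wells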
[8] = HepG2 cell cytotoxicity, dose response, cytotoxicity control, ATP luminescence, cherry-pick, activator set 2 (AID 1053143); type: functional, cell-based
Caspase-3 = target: T3, Caspase-3 (Homo sapiens, UniProt P42574); type: functional;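 further: Dose-response selectivity test against caspase-3 for candidate inhibitors of sentrin-specific proteases (SENPs)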
T3 sequence (P42574 whole entry): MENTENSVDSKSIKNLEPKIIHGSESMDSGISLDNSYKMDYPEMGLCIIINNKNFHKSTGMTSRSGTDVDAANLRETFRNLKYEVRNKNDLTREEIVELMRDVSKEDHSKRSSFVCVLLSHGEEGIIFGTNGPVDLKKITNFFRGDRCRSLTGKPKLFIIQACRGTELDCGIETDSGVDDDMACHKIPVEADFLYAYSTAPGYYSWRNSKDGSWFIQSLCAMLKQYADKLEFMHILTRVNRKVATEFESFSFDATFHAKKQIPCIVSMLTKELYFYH

[9] = target: T4, Sentrin-specific protease 7 (Homo sapiens, UniProt Q9BQF6); type: functional;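 further: Luminescence-based dose-response confirmation of ultra-high-throughput screening hits, measuring inhibition of SENP7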
T4 sequence (Q9BQF6 whole entry): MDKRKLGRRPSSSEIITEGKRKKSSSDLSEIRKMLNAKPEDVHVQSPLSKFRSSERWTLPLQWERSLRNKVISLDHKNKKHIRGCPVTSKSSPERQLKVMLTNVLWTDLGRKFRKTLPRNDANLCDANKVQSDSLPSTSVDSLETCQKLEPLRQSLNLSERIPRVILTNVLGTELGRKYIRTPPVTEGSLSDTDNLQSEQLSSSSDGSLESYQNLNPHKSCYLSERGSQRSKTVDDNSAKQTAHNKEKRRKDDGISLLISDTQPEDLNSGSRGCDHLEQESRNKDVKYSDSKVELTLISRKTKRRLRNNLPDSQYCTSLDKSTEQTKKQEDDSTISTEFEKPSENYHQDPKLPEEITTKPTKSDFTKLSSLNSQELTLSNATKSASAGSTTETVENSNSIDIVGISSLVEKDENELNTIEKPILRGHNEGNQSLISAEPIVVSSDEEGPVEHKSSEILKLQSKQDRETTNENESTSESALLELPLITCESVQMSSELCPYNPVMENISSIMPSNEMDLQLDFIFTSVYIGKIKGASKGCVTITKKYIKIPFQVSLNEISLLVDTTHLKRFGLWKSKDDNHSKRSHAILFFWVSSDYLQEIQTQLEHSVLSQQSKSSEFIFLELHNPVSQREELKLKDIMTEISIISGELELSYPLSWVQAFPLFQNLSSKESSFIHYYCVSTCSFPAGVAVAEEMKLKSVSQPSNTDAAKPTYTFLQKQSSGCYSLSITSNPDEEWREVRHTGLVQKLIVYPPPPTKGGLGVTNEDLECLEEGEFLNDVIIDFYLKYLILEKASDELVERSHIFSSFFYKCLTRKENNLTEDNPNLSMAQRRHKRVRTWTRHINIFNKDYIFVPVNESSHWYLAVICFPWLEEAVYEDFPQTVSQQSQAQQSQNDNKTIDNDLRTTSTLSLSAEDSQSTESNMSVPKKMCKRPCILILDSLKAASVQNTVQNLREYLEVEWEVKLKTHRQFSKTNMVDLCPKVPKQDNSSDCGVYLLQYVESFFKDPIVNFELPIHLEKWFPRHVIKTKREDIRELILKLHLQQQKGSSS

[10] = target: T5, Sentrin-specific protease 6 (Homo sapiens, UniProt Q9GZR1); type: functional;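 further: Luminescence-based dose-response confirmatory assay of SENP6 inhibition, following up an ultra-high-throughput screen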
T5 sequence (Q9GZR1 whole entry): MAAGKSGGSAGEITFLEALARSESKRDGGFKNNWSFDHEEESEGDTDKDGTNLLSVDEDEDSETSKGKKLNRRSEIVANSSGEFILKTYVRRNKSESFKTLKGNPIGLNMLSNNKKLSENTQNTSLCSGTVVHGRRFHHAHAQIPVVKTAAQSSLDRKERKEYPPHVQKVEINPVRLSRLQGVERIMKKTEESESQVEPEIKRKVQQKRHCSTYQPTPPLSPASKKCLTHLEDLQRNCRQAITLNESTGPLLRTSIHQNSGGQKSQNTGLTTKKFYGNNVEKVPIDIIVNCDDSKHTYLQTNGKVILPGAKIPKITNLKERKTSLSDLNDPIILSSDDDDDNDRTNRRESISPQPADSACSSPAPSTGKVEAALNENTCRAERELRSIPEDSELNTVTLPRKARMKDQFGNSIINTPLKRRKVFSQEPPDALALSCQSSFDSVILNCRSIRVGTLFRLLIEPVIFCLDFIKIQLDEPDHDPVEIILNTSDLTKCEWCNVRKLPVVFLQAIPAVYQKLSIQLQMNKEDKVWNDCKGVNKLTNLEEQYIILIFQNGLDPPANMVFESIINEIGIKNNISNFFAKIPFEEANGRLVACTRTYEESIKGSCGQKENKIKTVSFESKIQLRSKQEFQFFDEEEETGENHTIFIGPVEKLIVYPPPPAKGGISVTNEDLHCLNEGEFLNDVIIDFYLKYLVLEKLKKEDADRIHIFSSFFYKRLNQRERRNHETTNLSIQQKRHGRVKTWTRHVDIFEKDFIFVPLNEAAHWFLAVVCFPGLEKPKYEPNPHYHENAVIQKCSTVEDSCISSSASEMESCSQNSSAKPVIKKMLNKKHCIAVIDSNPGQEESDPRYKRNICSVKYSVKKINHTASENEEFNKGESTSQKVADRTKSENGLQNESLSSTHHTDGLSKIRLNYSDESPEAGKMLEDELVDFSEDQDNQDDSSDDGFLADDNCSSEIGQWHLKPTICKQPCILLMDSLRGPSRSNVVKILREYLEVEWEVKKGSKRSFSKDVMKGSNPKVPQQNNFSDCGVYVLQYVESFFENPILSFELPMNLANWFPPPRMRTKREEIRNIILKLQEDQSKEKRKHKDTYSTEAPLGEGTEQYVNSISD

[11] = target: T6, Sentrin-specific protease 8 (Homo sapiens, UniProt Q96LD8); type: functional;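 further: luminescence read-out of SENP8 inhibition, dose-response confirmation following an ultra-high-throughput screen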
T6 sequence (Q96LD8 whole entry): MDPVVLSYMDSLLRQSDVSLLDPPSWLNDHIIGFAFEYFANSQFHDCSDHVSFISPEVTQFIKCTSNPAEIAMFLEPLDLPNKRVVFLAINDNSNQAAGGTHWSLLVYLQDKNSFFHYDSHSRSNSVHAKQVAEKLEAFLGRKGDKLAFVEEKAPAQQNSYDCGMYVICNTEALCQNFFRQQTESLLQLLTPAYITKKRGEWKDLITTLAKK

[12] = target: Dual specificity tyrosine-phosphorylation-regulated kinase 1A (Rattus norvegicus, UniProt Q63470); type: biochemical, Homo sapiens
Caspase-6 = Caspase-6 (Homo sapiens, UniProt P55212); experiment: human caspase-6 inhibitors, dose response, biochemical, VEID-R110 fluorescence, cherry-pick (AID 720632)
Caspase-6, sequence (P55212 24-179 limits assumed): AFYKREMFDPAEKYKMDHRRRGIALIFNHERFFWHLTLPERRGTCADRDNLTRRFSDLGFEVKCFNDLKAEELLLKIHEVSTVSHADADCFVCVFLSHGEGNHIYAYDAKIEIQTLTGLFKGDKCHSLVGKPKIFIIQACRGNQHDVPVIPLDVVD
Caspase-6, sequence (P55212 194-293 limits assumed): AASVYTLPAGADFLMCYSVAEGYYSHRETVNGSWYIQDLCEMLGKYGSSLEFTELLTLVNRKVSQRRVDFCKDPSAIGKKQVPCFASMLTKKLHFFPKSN

Kallikrein-7 = Kallikrein-7 (Homo sapiens, UniProt P49862); experiment: Fluorescence Intensity-based biochemical primary high throughput dose response assay to identify activators of kallikrein-7 (K7) zymogen.
Kallikrein-7, sequence (P49862 whole entry, the tested form may be a part): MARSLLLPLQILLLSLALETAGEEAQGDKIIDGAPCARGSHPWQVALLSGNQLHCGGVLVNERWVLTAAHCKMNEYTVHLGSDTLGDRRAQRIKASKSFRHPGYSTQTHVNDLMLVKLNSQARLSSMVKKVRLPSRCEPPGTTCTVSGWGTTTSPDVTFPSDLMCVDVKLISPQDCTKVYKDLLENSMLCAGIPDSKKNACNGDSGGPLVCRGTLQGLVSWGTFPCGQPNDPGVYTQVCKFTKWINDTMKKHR

[13] = target: Disintegrin and metalloproteinase domain-containing protein 17 (Homo sapiens, UniProt P78536); experiment: exosite inhibitors of ADAM17, dose response, biochemical (AID 743260)
Disintegrin and metalloproteinase domain-containing protein 17, sequence (P78536 whole entry, the tested form may be a part): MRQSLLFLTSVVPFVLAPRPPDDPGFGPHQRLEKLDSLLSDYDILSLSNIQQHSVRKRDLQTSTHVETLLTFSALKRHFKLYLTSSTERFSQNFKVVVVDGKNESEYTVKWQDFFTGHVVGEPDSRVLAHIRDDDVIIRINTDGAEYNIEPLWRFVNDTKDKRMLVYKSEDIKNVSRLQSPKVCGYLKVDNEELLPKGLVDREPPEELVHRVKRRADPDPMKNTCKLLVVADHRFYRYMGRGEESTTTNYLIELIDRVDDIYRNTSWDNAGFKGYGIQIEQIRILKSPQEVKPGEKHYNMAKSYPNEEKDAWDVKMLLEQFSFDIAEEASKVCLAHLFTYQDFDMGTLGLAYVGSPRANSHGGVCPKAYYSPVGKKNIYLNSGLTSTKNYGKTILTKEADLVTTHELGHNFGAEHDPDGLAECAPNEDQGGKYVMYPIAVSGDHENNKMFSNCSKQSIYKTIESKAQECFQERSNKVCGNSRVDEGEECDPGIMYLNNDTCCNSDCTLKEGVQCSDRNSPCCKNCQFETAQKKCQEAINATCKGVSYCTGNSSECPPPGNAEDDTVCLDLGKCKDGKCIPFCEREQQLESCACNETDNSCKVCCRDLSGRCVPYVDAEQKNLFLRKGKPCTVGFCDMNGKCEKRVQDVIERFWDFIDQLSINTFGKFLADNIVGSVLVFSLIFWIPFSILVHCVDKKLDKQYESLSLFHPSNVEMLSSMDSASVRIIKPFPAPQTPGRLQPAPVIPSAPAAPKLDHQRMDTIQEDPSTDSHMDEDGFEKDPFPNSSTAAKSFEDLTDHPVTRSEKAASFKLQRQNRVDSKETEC

[14] = ADAM10 protease inhibitors, dose response, selectivity assay for ADAM17 exosite inhibitor project, biochemical, FRET peptide substrate, recombinant human ADAM10 (AID 743259);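 further: ADAM10 enzyme cleaving a FRET peptide substrate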
HeLa = experiment: HeLa cell cytotoxicity, dose response, cytotoxicity control, ATP luminescence, cherry-pick samples (AID 687004); type: functional, cell-based; conditions: Homo sapiens
HEK293 = experiment: HEK293T cell cytotoxicity, dose response, cytotoxicity control, ATP luminescence, cherry-pick samples (AID 687005); type: functional, cell-based; conditions: Homo sapiens;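 further: cells exposed to compound for 48 hours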
[15] = HEK293 Cytotoxicity Assay Measured in Cell-Based System Using Plate Reader - 7071-01_Inhibitor_Dose_CherryPick_Activity_Set2.; type: functional
[16] = Late stage assay provider results from the probe development effort to identify selective inhibitors of heat shock protein 90 (HSP90): Absorbance-based cell proliferation assay in SKBR3 cells.; type: functional; conditions: SK-BR-3
[17] = Late stage assay provider results from the probe development effort to identify selective inhibitors of heat shock protein 90 (HSP90): Absorbance-based cell proliferation assay in MCF7 cells.; type: functional
[18] = target: Protein disulfide-isomerase (Homo sapiens, UniProt P07237); experiment: PDI inhibitors, insulin turbidity readout, confirmation, biochemical, dry powder samples, set 2 (AID 652146)
Protein disulfide-isomerase, sequence (P07237 whole entry): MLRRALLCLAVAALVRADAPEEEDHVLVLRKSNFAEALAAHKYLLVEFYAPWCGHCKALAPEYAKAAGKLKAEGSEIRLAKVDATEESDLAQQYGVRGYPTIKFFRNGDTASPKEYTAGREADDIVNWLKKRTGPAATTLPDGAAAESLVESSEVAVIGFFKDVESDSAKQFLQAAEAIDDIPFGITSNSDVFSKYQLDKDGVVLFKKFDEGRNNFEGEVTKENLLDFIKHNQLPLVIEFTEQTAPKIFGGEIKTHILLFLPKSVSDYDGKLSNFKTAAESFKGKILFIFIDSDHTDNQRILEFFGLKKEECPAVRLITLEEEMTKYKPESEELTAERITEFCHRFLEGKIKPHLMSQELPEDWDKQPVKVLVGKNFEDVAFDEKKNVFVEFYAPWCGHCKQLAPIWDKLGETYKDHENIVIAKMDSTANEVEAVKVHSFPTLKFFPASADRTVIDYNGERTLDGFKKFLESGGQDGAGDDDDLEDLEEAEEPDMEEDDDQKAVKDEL

[19] = A375 melanoma cell cytotoxicity, dose response, counter-screen for MITF inhibitor project, CellTiter-Glo luminescence, dry powder, set 2 (AID 624489); type: functional, cell-based; conditions: A-375;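 further: actives are compounds lowering A375 viability meaning general cytotoxicity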
[20] = cytotoxicity in primary human melanocytes, dose response, cytotoxicity control, cell-based, plate reader, dry powder (AID 651920); type: functional

## O=C(Nc1nc2c(s1)CCCC2)c1cccs1
[1]
  CC50: > 50 µM (active)

## COc1ccccc1NS(=O)(=O)c1cc(NC(=O)c2ccc(Cl)nc2)ccc1Cl
[2]
  AC50: 11.3 µM (active)
[3]
  AC50: 3.12 µM (active)
[4]
  AC50: 56.2 µM (active)
[5]
  AC50: 21 µM (active)
[6]
  AC50: 3.71 µM (active)

## CCOC(=O)c1sc(NC(=O)Nc2cccc(Cl)c2)cc1C
[7]
  EC50: 4.86 µM (active)
Streptokinase A
  EC50: 11.2 µM (active)
Streptococcus
  EC50: 4.1 µM (active)
INS1
  AC50: 4.57 µM (active)
[8]
  AC50: 14.7 µM (active)

## COc1cc2c(C#N)c(N3CCCC3)nc(N)c2c(N)n1
Caspase-3
  IC50: 7.35 µM (active)
[9]
  IC50: 2.67 µM (active)
[10]
  IC50: 2.24 µM (active)
[11]
  IC50: 2.64 µM (active)
[12]
  AC50: 5.72 µM (active)
Caspase-6
  AC50: 12 µM (active)

## COc1cc2c(cc1OC)C1CCN3C(=O)CCC3N1CC2 (stereo not drawn)
Kallikrein-7
  EC50: 21.1 µM (inactive)

## Cc1ccc(CC2(c3ccccc3)NC(=O)NC2=O)cc1 (stereo not drawn)
[13]
  IC50: 18.6 µM (inactive)
[14]
  IC50: > 69.4 µM (inactive)

## CCCC#Cc1ccc2c(c1)O[C@H](CN(C)CCC)[C@H](C)CN([C@@H](C)CO)S2(=O)=O
HeLa
  AC50: 42.6 µM (active)
HEK293
  AC50: 14.6 µM (active)
[15]
  AC50: 14.6 µM (active)

## COc1ccccc1/N=N/c1c(O)[nH]c(=O)c(C#N)c1C
[16]
  IC50: > 100 µM (inactive)
[17]
  IC50: > 100 µM (inactive)

## C=CCOc1ccc(CN2CCC(CCOc3ccccc3)(C(=O)N3CCCC3)CC2)cc1Cl
[18]
  AC50: > 30 µM (inactive)

## O=C(NC1=C(N2CCN(c3ccccc3)CC2)C(=O)c2ccccc2C1=O)c1ccccc1
[19]
  AC50: > 70 µM (inactive)
[20]
  AC50: > 70 µM (inactive)
